Patent publication US9018192B2, “Unitary pharmaceutical dosage form” (Bristol-Myers Squibb & Gilead Sciences, LLC, priority 2005, dated 2015)
Where a name gives a salt, the structure may show the parent alone.

Assay: chemical stability of tenofovir DF in the dosage form (stability studies)
Format: physicochemical

- compatibility of efavirenz formulation with tenofovir DF (attributed to the surfactant sodium lauryl sulfate in the efavirenz portion): unexpectedly incompatible
- stability of tenofovir DF in preparation (increased proportion of excipients, wet granulation of the three API combination): highly unstable
- stability of tenofovir DF in combination tablet (three drugs in unitary, essentially homogeneous composition manufactured by wet granulation, stability studies): highly unstable and rapidly degraded
SMILES: CC(C)OC(=O)OCOP(=O)(CO[C@H](C)Cn1cnc2c(N)ncnc21)OCOC(=O)OC(C)C [tenofovir DF, tenofovir disoproxil fumarate]
